In patent US5250554A, “Benzimidazole derivatives useful as angiotensin II inhibitors” (Takeda Chemical Industries, Ltd., priority 1989, dated 1993):
Counter-ions that a name gives are not always drawn.

What was measured:
angiotensin II = conditions: as reported; cited from earlier work
pressor action of A-II = assay: Inhibitory effect on pressor action of A-II (oral drug, i.v. A-II 100 ng/kg); assay type: in vivo, Jcl:SD rats (9 week old, male); conditions: rats, A-II 100 ng/kg i.v.; for inhibition in vivo at 3 mg/kg / inhibition in vivo at 30 mg/kg: Rattus norvegicus, po; for inhibition in vivo at 3 mg/kg: read-out: Pressor response to A II (p.o.), 3 mg/kg (percent inhibition); for inhibition in vivo at 30 mg/kg: read-out: Pressor response to A II (p.o.), 30 mg/kg (percent inhibition)
Text: Inhibitory effect of the compound of this invention on pressor action of A-II
Jcl:SD rats (9 week old, male) were used. On the day prior to that of the experiment, these animals were applied with cannulation into the femoral artery and vein under anesthesia with pentobarbital Na. The animals were fasted but allowed free access to drinking water until the experiment was started. On the day of conducting the experiment, the artery cannula was connected with a blood-pressure transducer, and the average blood pressure was recorded by means of polygraph. […] The drugs were orally administered, and then, at each point of the measurement, A-II was administered intravenously, and the pressor action was similarly measured. By comparing the pressor action before and after administration of the drug, the percent inhibition by the drug on A-II-induced pressor action was evaluated.

A-II receptor = molecular target: T1, A-II receptor (Bos taurus, UniProt P25104); assay: Inhibition of binding of angiotensin-II to angiotensin receptor (radioreceptor assay, 125I-A-II); parameters: species or system bovine (membrane fraction of bovine adrenal cortex); conditions: bovine adrenal cortex membrane, 125I-A-II, 1 h room temperature; for inhibition at 10 µM: read-out: Radioreceptor assay, inhibition of A-II binding, 1 × 10^-5 M; for inhibition at 1 µM: read-out: Radioreceptor assay, inhibition of A-II binding, 1 × 10^-6 M
T1 construct: An A-II receptor was prepared from the membrane fraction of bovine adrenal cortex; from tissue; host or cells: bovine adrenal cortex, membrane fraction
T1 sequence (P25104 1-359): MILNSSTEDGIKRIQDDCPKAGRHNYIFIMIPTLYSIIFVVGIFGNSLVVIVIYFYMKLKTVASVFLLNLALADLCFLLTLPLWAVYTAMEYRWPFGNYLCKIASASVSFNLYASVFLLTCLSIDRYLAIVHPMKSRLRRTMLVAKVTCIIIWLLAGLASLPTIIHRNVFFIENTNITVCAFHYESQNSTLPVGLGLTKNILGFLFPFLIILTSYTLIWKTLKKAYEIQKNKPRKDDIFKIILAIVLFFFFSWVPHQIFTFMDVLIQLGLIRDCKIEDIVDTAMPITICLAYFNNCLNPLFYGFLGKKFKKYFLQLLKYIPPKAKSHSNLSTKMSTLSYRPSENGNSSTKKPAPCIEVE
Procedure: Inhibition of binding of angiotensin-II to angiotensin receptor
An A-II receptor was prepared from the membrane fraction of bovine adrenal cortex.

inhibition at 10 µM (A-II receptor; 1 × 10^-5 M) [%] | inhibition at 1 µM (A-II receptor; 1 × 10^-6 M) [%] | Compound | angiotensin II antagonism (angiotensin II) | inhibition in vivo at 3 mg/kg (pressor action of A-II; 3 mg/kg p.o.) [%] | inhibition in vivo at 30 mg/kg (pressor action of A-II; 30 mg/kg p.o.) [%] | also measured
 |  | [Sar^1, Ala^8 ]AII | potent angiotensin II antagonism |  |  | 
 |  | CNCC(=O)N[C@@H](CCCN=C(N)N)C(=O)N[C@H](C(=O)N[C@@H](Cc1ccc(O)cc1)C(=O)N[C@H](C(=O)N[C@@H](Cc1cnc[nH]1)C(=O)N1CCC[C@H]1C(=O)N[C@@H](C)C(=O)O)C(C)C)C(C)C [saralasin] | potent angiotensin II antagonism |  |  | 
82 | 50 | CCCCc1nc2cccc(C(=O)OCC)c2n1Cc1ccc(-c2ccccc2-c2nnn[nH]2)cc1 [Working Example 14, Ethyl 2-butyl-1-[[2'-(1H-tetrazol-5-yl)biphenyl-4-yl]methyl]benzimidazole-7-carboxylate] |  | 50 to 70 | > 70 | 
95 | 79 | CCCc1nc2cccc(C(=O)O)c2n1Cc1ccc(-c2ccccc2-c2nn[nH]n2)cc1 [Working Example 7, 2-Propyl-1-[[2'-(1H-tetrazol-5-yl)bichenyl-4-yl]methyl]benzimidazole-7-carboxylic acid] |  | > 70 | > 70 | 
 |  | CCCCc1nc2cccc(C(=O)O)c2n1Cc1ccc(-c2ccccc2-c2nn[nH]n2)cc1 [Working Example 29, 2-Butyl-1-[[2'-(1H-tetrazol-5-yl)biphenyl-4-yl]methyl]benzimidazole-7-carboxylic acid 2.potassium salt] |  |  |  | Pressor response to A II (p.o.), 3 mg/kg (percent inhibition) (pressor action of A-II; 3 mg/kg p.o.): +++ (+++ ≥70%); Pressor response to A II (p.o.), 30 mg/kg (percent inhibition) (pressor action of A-II; 30 mg/kg p.o.): +++ (+++ ≥70%); Radioreceptor assay, inhibition of A-II binding, 1 × 10^-5 M (A-II receptor; 1 × 10^-5 M): 87; Radioreceptor assay, inhibition of A-II binding, 1 × 10^-6 M (A-II receptor; 1 × 10^-6 M): 60
66 | 13 | CCCCc1nc2cc(C(=O)O)ccc2n1Cc1ccc(-c2ccccc2-c2nnn[nH]2)cc1 [compound 44, 2-Butyl-1-[[2'-(1H-tetrazol-5-yl)biphenyl-4-yl]methyl]benzimidazole-5-carboxylic acid, reference compound] |  | < 30 |  | 
